Patent US8003345B2, “Antioxidant pharmaceutical compound, method for producing polypeptide and method of cure” (Institute of Cell Biophysics Russian Academy of Sciences, priority 2002, dated 2011)

Columns and labels:
[1] = tested on: tracheal epithelium of rat after application of lipopolysaccharide; experiment: Inflammation of rat tracheal epithelium caused by lipopolysaccharide (LPS); format: in vivo
Method: The therapeutic properties of peroxiredoxin Prx VI in treating the upper respiratory tract of rat immediately after the application of LPS were checked on a group of 4 Wistar line rats weighing 150-200 grams. The application of LPS was carried out in the following manner. The rats were anesthetized with hexenal, and 100 μl of a lipopolysaccharide solution were introduced through a catheter (the lipopolysaccharide concentration was from 10^−9 to 10^−11 mg/ml, the total number of the used animals was 20). After the application of the lipopolysaccharide, the rats were maintained for a definite period of time (1 hour, 3 hours, 6 hours, 7 hours, 9 hours), then narcotized with hexenal (300 mg/kg weight), and a sample of the tracheal epithelial tissue was isolated. For histochemical investigations the isolated sample was placed into a fixing solution containing 2% of formaldehyde and 0.5% of glutaraldehyde. The tissue was dehydrated by sequential routing through ethyl alcohol with increasing concentration (40-100%). The tissue was embedded into LR white resin. The resin was polymerized at room temperature. 0.5 em-thick sections were made on an LKB ultratome (Sweden), using glass knives. The sections were stained with a hematoxylin-eosine and analyzed under a light microscope.
For biochemical investigations we scraped the epithelium with a thin spatula, washed off the scrape with physiological solution and centrifugated at 10000 g for 15 min. The concentration of hydrogen peroxide was by the luminescence method. […] After LPS, application of a solution of a composition based on peroxiredoxin Prx VI into the trachea was carried out. Preliminarily the rats were narcotized by intraperitoneal administration of hexenal (70 mg/kg), the animals were fixed on an operating table, and under visual control with the aid of a binocular lens, through a catheter of 1 mm in diameter, peroxiredoxin solution (20 to 100 μl) was introduced into the trachea. The peroxiredoxin concentration was from 0.5 to 5.0 mg/ml. A 0.9% solution of NaCl was used as the solvent. The application of the solution of the composition was carried out once, immediately after the application of LPS. The application of pure solvent, solutions of serum albumin (10 mg/ml) and of glutathione (10 mM) were used as control.
Histological investigation of the trachea was carried out 24 hrs after the LPS application.

[2] = tested on: tracheal epithelium of rat after application of lipopolysaccharide; experiment: as above; format: in vivo; remark: listed apart in the source
[3] = tested on: glutamine synthetase; experiment: Comparative characteristics of peroxiredoxin activators (glutamine synthetase protection against metal-catalyzed oxidative system); format: biochemical; settings: 50 μg peroxiredoxin VI, FIG. 11
Method: The antioxidant activity was determined from the degree of glutamine synthetase protection against metal-catalyzed oxidative system. The antioxidant effectiveness of thiols was determined in molar concentration, at which 50% protection of glutamine synthetase took place.
For determining the effectiveness of peroxiredoxin activation with dithiothreitol or with dihydrolipoic acid (natural activator), use is made of the ability of peroxiredoxin to protect glutamine synthetase from inactivation caused by the metal-catalyzed oxidative system.
The degree of the peroxiredoxin activity was determined from the protein concentration value, at which 50% preservation of the glutamine synthetase activity was observed.

[4] = Cytotoxicity: number of live line L929 cells; format: cell-based, human; settings: 0.1-10 μg/ml concentration; Trypan stain
Method: (§1) The cytotoxicity is determined from the influence of recombinant Prx V1hum or of natural rat Prx V1rat on the level of proliferation of line L929 human lymphoblastoma cells and of T-lymphocytes from the spleen of line NRRI rats stimulated with concavalin A.
(§2) Cells of two lines with the concentration of 10^4 cells/ml medium were cultivated in RPMI 1640 containing 5% of bovine fetal serum. The stimulation of T-lymphocytes was carried out with the 0.1 μg/ml concentration of concavalin. In the case of T-lymphocytes the proliferation level was determined from the inclusion of ^3H-thymidine. The number of live line L929 cells was determined in a 96-cell plate with the aid of a Trypan stain, followed by scanning on a Multiscan multichannel photometer (LKB, Sweden).

[5] = tested on: T-lymphocytes from the spleen of line NRRI rats stimulated with concavalin A; experiment: Proliferation of concanavalin A-stimulated T-lymphocytes (3H-thymidine inclusion); format: cell-based; settings: 0.1-1.0 mg/ml concentration, against cells stimulated only with concavalin A
Method: as §1, §2

[6] = tested on: skin cuts of rats; experiment: Treating skin wounds (cuts) in rats; format: in vivo, rat; settings: in 5 days; 0.5 mg/ml in 0.15 M NaCl, bandages changed once a day; against control; FIG. 10
Method: Rats were preliminarily narcotized by intraperitoneal introduction of hexenal (70 mg/kg). The animals were fixed on an operating table, and then 2-3 mm deep and 1 cm long cuts were made in the skin of both paws with the help of a razor blade. Control cuts were irrigated with physiological solution and a bactericidal plaster was applied; in the case of using peroxiredoxin, the wound was irrigated with a solution of recombinant Prx Vlhum or of its fragment ΔPrx Vlhum in 0.15 M NaCl in 0.5 mg/ml concentration, and a gauze bandage soaked with the same solutions was applied. The bandages were changed once a day.

[7] = tested on: glutamine synthetase of E.coli; settings: DTT/Fe3+/O2 oxidative system, 3 mM activator, 10 min at 37° C.; FIG. 3
Method: Comparison of the protector properties of recombinant full-size Prx Vlhum with the protector properties of natural rat Prx VIrat and with the protector properties of N-terminal ΔPrx V1hum in terms of protecting glutamine synthetase of E.coli from inactivation in a model oxidative system in vitro.
For determining the activity of different types of peroxiredoxins, their ability to protect glutamine synthetase from the DTT/Fe^+3/O2 oxidative system is measured. Glutamine synthetase is isolated from cells of the E.coli DH5α strain (Streicher S. L., Tyler B., 1980) and inactivated in the presence of a Fe^3+/O2 oxidative system and a peroxiredoxin activator—in the model oxidative system generating free radicals (Kim K. et al., 1988). […] The residual activity of glutamine synthetase is assessed by adding to the sample 200 μl of a reaction mixture which comprises: ADP, 0.4 mM; glutamine, 150 mM; K—AsO4, 10 mM; NH2OH, 20 mM; MnCl2, 0.4 mM; HEPES, 100 mM, pH 7.4. […] The protector properties of peroxiredoxin for protecting glutamine synthetase of E.coli from inactivation are determined as the ratio of the remaining activity of the enzyme after the inactivation in the presence of different concentrations of peroxiredoxin to the activity of non-inactivated glutamine synthetase.

N[C@@H](CCC(=O)N[C@@H](CS)C(=O)NCC(=O)O)C(=O)O [Glutathione, glutathione, reference compound]
Integrity of tracheal epithelium (according to histological data) ([1]; Time after the action of LPS: 1 hour): 30%
Integrity of tracheal epithelium (according to histological data) ([1]; Time after the action of LPS: 3 hours): 20%
Integrity of tracheal epithelium (according to histological data) ([1]; Time after the action of LPS: 6 hours): 10%
Integrity of tracheal epithelium (according to histological data) ([2]; Treatment 24 hours later for 5 days and the integrity of epithelium 2 weeks later): 20%
effect on tracheal epithelium after LPS (in words) ([2]; other antioxidants, see Table 2): no significant effect

O=C(O)CCCC[C@@H](S)CCS (racemic) [dihydrolipoic acid]
antioxidant effectiveness of thiols (degree of glutamine synthetase protection) [3]: almost equal to dithiothreitol and substantially surpasses the effectiveness of lipoic acid

B1: Prx VIrat: natural peroxiredoxin isolated from the olfactory epithelium of a Wistar line rat, 223 amino acids (protein, UniProt O35244 2-224, looked up)
Peroxiredoxin-6: PGGLLLGDEAPNFEANTTIGHIRFHDFLGDSWGILFSHPRDFTPVCTTELGRAAKLAPEFAKRNVKLIALSIDSVEDHFAWSKDINAYNGAAPTEKLPFPIIDDKDRDLAILLGMLDPAEKDEKGMPVTARVVFIFGPDKKLKLSILYPATTGRNFDEILRVVDSLQLTASNPVATPVDWKKGESVMVLPTLPEEEAKQLFPKGVFTKELPSGKKYLRYTPQP
effect on the number of live line L929 cells [4]: did not produce any effect
cell proliferation level of T-lymphocytes stimulated with concavalin A [5]: increased approximately twofold

B2: ΔPrx VIhum: N-terminal fragment of human peroxiredoxin Prx VI (SEQ ID NO: 2), length 177 a.b., molecular mass 19691.61 Da (protein, listed as Homo sapiens)
chain: MPGGLLLGDVAPNFEANTTVGRIRFHDFLGDSWGILFSHPRDFTPVCTTELGRAAKLAPEFAKRNVKLIALSIDSVEDHLAWSKDINAYNCEEPTEKLPFPIIDDRNRELAILLGMLDPAEKDEKGMPVTARVVFVFGPDKKLKLSILYPATTGRNFDEILRVVISLQLTAEKRVATPVDWKDGDSVMVLPTIPEEEAKKLFPKGVFTKELPSGKKYLRYTPQP
healing of the wound [6]: almost complete healing of the wound
protector properties: antioxidant characteristics in protecting glutamine synthetase from inactivation [7]: close to the recombinant full-size Prx Vlhum
